Test results: patent US20250339569A1, “CARBONIC ANHYDRASE IX LIGANDS” (priority 2021, published 2025)
Read-outs that look alike come from different tables or passages of the source. Starred links: 1 amine or outer side, 2 acyl side, 3 side chain; linkers in the order of their positions; H or OH if unused. Positions of bridges follow the written chain, without caps; N, C: chain ends. Non-standard residues stand in square brackets, D forms with d. Residues, ends and D or L forms follow the SMILES beside them. *: point of attachment. DOTA = O=C(O)CN1CCN(CC(=O)O)CCN(CC(=O)*)CCN(CC(=O)O)CC1; Pyridine(2,6-diCH2) = c1cc(C[*:1])nc(C[*:2])c1; Dip = N[C@H](C(=O)O)C(c1ccccc1)c1ccccc1; Phe(4-NH2) = Nc1ccc(C[C@H](N)C(=O)O)cc1; mXylylene = c1cc(C[*:1])cc(C[*:2])c1; NMeY = CN[C@@H](Cc1ccc(O)cc1)C(=O)O; Orn(Me2) = CN(C)CCC[C@H](N)C(=O)O; X2 = O=C(CN1CCC(N[*:1])CC1)[*:2]; X65 = NS(=O)(=O)c1ccc(C(=O)*)cn1; X1 = O=C(CN1CCN([*:1])CC1)[*:2]; Pen = CC(C)(S)[C@H](N)C(=O)O; Isovaleryl = CC(C)CC(=O)*; Aib = CC(C)(N)C(=O)O

Target: T1, CAIX-expressing human HT-29 colorectal cancer cells (Homo sapiens, UniProt Q16790)
T1 construct: CAIX-expressing human HT-29 colorectal cancer cells; host or cells: HT-29 human colorectal cancer cells
Experiment: FACS binding assay (IC50 determination, competition with tracer 3BP-2776 or 3BP-4149)
Settings: 4° C., 1 hour, read-out: pIC50 category (activity) (converted)
In short: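 HT-29 cells in FACS buffer (PBS, 1% FCS) at 500.000 cells/ml were exposed to compounds competing with a labelled tracer, with biotinylated compounds detected by 1 μg/mL APC-streptavidin for 30 min on ice. APC/Cy5 median fluorescence was read by flow cytometry and IC50 derived by 4PL fit.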

[1] = FACS competition on HT-29 cells, Tracer ID 3BP-2776 (10 nM, biotin-labeled)
[2] = FACS binding assay, HT-29 cells, competition with tracer 3BP-2776 (10 nM, biotin-labeled)

Row | Compound | IC50 [1] [nM] | IC50 [2] [nM] | also measured
1 | CC(=O)N[C@H](C(=O)N[C@@H](Cc1ccc(O)cc1)C(=O)N[C@H]1CSCc2cccc(c2)CSC[C@@H](C(N)=O)NC(=O)[C@H](CO)NC(=O)[C@H](Cc2c[nH]c3ccccc23)NC(=O)[C@@H]2CCCCNC(=O)CC[C@H](NC(=O)[C@H]3CCCN3C(=O)[C@H](CCC(=O)O)NC1=O)C(=O)N[C@@H](Cc1c[nH]c3ccccc13)C(=O)N[C@@H](CC(C)C)C(=O)N2)C(C)C [3BP-3901] (Ac-VYCE[dP]EWLKWSC-NH2; linker 3-12 via mXylylene; lactam 6-9) | 10 to 79.4 | – | –
2 | CC(C)C[C@@H]1NC(=O)[C@H](Cc2c[nH]c3ccccc23)NC(=O)[C@H](CC(=O)O)NC(=O)[C@H]2CCCN2C(=O)[C@H](CCC(=O)O)NC(=O)[C@@H](NC(=O)[C@H](Cc2ccc(O)cc2)NC(=O)[C@@H](NC(=O)CN2CCC(NC(=O)CN3CCN(CC(=O)O)CCN(CC(=O)O)CCN(CC(=O)O)CC3)CC2)C(C)C)CSCc2cccc(c2)CSC[C@@H](C(N)=O)NC(=O)[C@H](CO)NC(=O)[C@H](Cc2c[nH]c3ccccc23)NC(=O)[C@H](CCCN(C)C)NC1=O [3BP-4099] ({DOTA}-[X2]VYCE[dP]DWL[Orn(Me2)]WSC-NH2; linker 4-13 via mXylylene) | – | < 10 | –
3 | CC(C)C[C@@H]1NC(=O)[C@H](Cc2ccc(NC(=O)c3ccc(S(N)(=O)=O)nc3)cc2)NC(=O)[C@H](CC(=O)O)NC(=O)[C@H]2CCCN2C(=O)[C@H](CCC(=O)O)NC(=O)[C@@H](NC(=O)[C@H](CCC(N)=O)NC(=O)CN2CCN(C(=O)CN3CCN(CC(=O)O)CCN(CC(=O)O)CCN(CC(=O)O)CC3)CC2)CSCc2cccc(c2)CSC[C@@H](C(N)=O)NC(=O)[C@H](CO)NC(=O)[C@H](Cc2c[nH]c3ccccc23)NC(=O)[C@H]([C@@H](C)O)NC1=O [3BP-4481] ({DOTA}-[X1]QCE[dP]D[Phe(4-NH2)](X65)LTWSC-NH2; linker 3-12 via mXylylene) | – | – | IC50 (FACS binding assay, HT-29 cells, competition with tracer 3BP-4149 (3 nM, Cy5-labeled)): 100 to 794 nM
4 | CC(=O)N[C@H](C(=O)N[C@H](Cc1ccc(O)cc1)C(=O)N[C@H]1CSCc2cccc(c2)CSC[C@@H](C(N)=O)NC(=O)[C@H](CCC(N)=O)NC(=O)[C@H](Cc2c[nH]c3ccccc23)NC(=O)[C@H]([C@@H](C)O)NC(=O)[C@H](CC(C)C)NC(=O)[C@H](Cc2c[nH]c3ccccc23)NC(=O)[C@H](CC(=O)O)NC(=O)CNC(=O)[C@H](CCC(=O)O)NC1=O)C(C)C [3BP-3044] (Ac-V[dY]CEGDWLTWQC-NH2; linker 3-12 via mXylylene) | 100 to 794 | – | –
5 | CC(C)C[C@@H]1NC(=O)[C@H](C(c2ccccc2)c2ccccc2)NC(=O)[C@H](CC(=O)O)NC(=O)[C@H]2CCCN2C(=O)[C@H](CCC(=O)O)NC(=O)[C@@H](NC(=O)[C@H](Cc2ccc(O)cc2)NC(=O)[C@@H](NC(=O)CN2CCC(NC(=O)CN3CCN(CC(=O)O)CCN(CC(=O)O)CCN(CC(=O)O)CC3)CC2)C(C)C)CSCc2cccc(c2)CSC[C@@H](C(N)=O)NC(=O)[C@H](CO)NC(=O)[C@H](Cc2c[nH]c3ccccc23)NC(=O)[C@H]([C@@H](C)O)NC1=O [3BP-4132] ({DOTA}-[X2]VYCE[dP]D[Dip]LTWSC-NH2; linker 4-13 via mXylylene) | – | < 10 | –
6 | CC(=O)N[C@H](C(=O)N[C@@H](Cc1ccc(O)cc1)C(=O)N[C@H]1CSCc2cccc(c2)CSC[C@@H](C(N)=O)NC(=O)[C@H](CCC(N)=O)NC(=O)[C@H](Cc2c[nH]c3ccccc23)NC(=O)[C@H]([C@@H](C)O)NC(=O)[C@H](CC(C)C)NC(=O)[C@H](Cc2c[nH]c3ccccc23)NC(=O)[C@H](CC(=O)O)NC(=O)C(C)(C)NC(=O)[C@H](CCC(=O)O)NC1=O)C(C)C [3BP-3059] (Ac-VYCE[Aib]DWLTWQC-NH2; linker 3-12 via mXylylene) | < 10 | – | –

Continued, in another order:

Row | IC50 [1] [nM] | IC50 [2] [nM] | Compound | also measured
7 | < 10 | – | CC(C)CC(=O)N[C@@H](CCC(=O)O)C(=O)N[C@H]1CSCc2cccc(c2)CSC[C@@H](C(N)=O)NC(=O)[C@H](CO)NC(=O)[C@H](Cc2c[nH]c3ccccc23)NC(=O)[C@H]([C@@H](C)O)NC(=O)[C@H](CC(C)C)NC(=O)[C@H](Cc2c[nH]c3ccccc23)NC(=O)[C@H](CC(=O)O)NC(=O)[C@H]2CCCN2C(=O)[C@H](CCC(=O)O)NC1=O [3BP-3728] (Isovaleryl-ECE[dP]DWLTWSC-NH2; linker 2-11 via mXylylene) | –
8 | – | 100 to 794 | CC(=O)N[C@H](C(=O)N[C@@H](Cc1ccc(O)cc1)C(=O)N[C@H]1CSCc2cccc(c2)CSC[C@@H](C(N)=O)NC(=O)[C@H](CO)NC(=O)[C@H](Cc2c[nH]c3ccccc23)NC(=O)[C@H]2CC(=O)NCCCC[C@H](NC(=O)[C@H]3CCCN3C(=O)[C@H](CCC(=O)O)NC1=O)C(=O)N[C@@H](Cc1c[nH]c3ccccc13)C(=O)N[C@@H](CC(C)C)C(=O)N2)C(C)C [3BP-4043] (Ac-VYCE[dP]KWL[dD]WSC-NH2; linker 3-12 via mXylylene; lactam 6-9) | –
9 | < 10 | – | CC(=O)N[C@H](C(=O)N[C@@H](Cc1ccc(O)cc1)C(=O)N[C@H]1CSCc2cccc(c2)CSC(C)(C)[C@@H](C(N)=O)NC(=O)[C@H](CCC(N)=O)NC(=O)[C@H](Cc2c[nH]c3ccccc23)NC(=O)[C@H]([C@@H](C)O)NC(=O)[C@H](CC(C)C)NC(=O)[C@H](Cc2c[nH]c3ccccc23)NC(=O)[C@H](CC(=O)O)NC(=O)CNC(=O)[C@H](CCC(=O)O)NC1=O)C(C)C [3BP-3064] (Ac-VYCEGDWLTWQ[Pen]-NH2; linker 3-12 via mXylylene) | –
10 | – | 10 to 79.4 | CC(C)C[C@@H]1NC(=O)[C@H](Cc2c[nH]c3ccccc23)NC(=O)[C@H](CC(=O)O)NC(=O)[C@H]2CCCCNC(=O)CC[C@H](NC1=O)C(=O)N[C@@H](Cc1c[nH]c3ccccc13)C(=O)N[C@@H](CO)C(=O)N[C@H](C(N)=O)CSCc1cccc(c1)CSC[C@H](NC(=O)[C@H](Cc1ccc(O)cc1)NC(=O)[C@@H](NC(=O)CN1CCC(NC(=O)CN3CCN(CC(=O)O)CCN(CC(=O)O)CCN(CC(=O)O)CC3)CC1)C(C)C)C(=O)N[C@@H](CCC(=O)O)C(=O)N2 [3BP-4114] ({DOTA}-[X2]VYCE[dK]DWLEWSC-NH2; linker 4-13 via mXylylene; lactam 6-10) | –
11 | – | 10 to 79.4 | CC(C)C[C@@H]1NC(=O)[C@H](Cc2c[nH]c3ccccc23)NC(=O)[C@H](CC(=O)O)NC(=O)[C@H]2CCCN2C(=O)[C@H](CCC(=O)O)NC(=O)[C@@H](NC(=O)[C@H](Cc2ccc(O)cc2)NC(=O)[C@@H](NC(=O)CN2CCC(NC(=O)CN3CCN(CC(=O)O)CCN(CC(=O)O)CCN(CC(=O)O)CC3)CC2)C(C)C)CSCc2cccc(n2)CSC[C@@H](C(N)=O)NC(=O)[C@H](CO)NC(=O)[C@H](Cc2c[nH]c3ccccc23)NC(=O)[C@H]([C@@H](C)O)NC1=O [3BP-4140] ({DOTA}-[X2]VYCE[dP]DWLTWSC-NH2; linker 4-13 via Pyridine(2,6-diCH2)) | –
12 | < 10 | – | CC(=O)N[C@H](C(=O)N(C)[C@@H](Cc1ccc(O)cc1)C(=O)N[C@H]1CSCc2cccc(c2)CSC[C@@H](C(N)=O)NC(=O)[C@H](CO)NC(=O)[C@H](Cc2c[nH]c3ccccc23)NC(=O)[C@H]([C@@H](C)O)NC(=O)[C@H](CC(C)C)NC(=O)[C@H](Cc2c[nH]c3ccccc23)NC(=O)[C@H](CC(=O)O)NC(=O)[C@H]2CCCN2C(=O)[C@H](CCC(=O)O)NC1=O)C(C)C [3BP-3589] (Ac-V[NMeY]CE[dP]DWLTWSC-NH2; linker 3-12 via mXylylene) | –
13 | < 10 | – | CC(C)CC(=O)N[C@@H](Cc1ccc(O)cc1)C(=O)N[C@H]1CSCc2cccc(c2)CSC[C@@H](C(N)=O)NC(=O)[C@H](CO)NC(=O)[C@H](Cc2c[nH]c3ccccc23)NC(=O)[C@H]([C@@H](C)O)NC(=O)[C@H](CC(C)C)NC(=O)[C@H](Cc2c[nH]c3ccccc23)NC(=O)[C@H](CC(=O)O)NC(=O)[C@H]2CCCN2C(=O)[C@H](CCC(=O)O)NC1=O [3BP-3569] (Isovaleryl-YCE[dP]DWLTWSC-NH2; linker 2-11 via mXylylene) | –
